# Target: T1, recombinant M. suis sPPase (rPPase) (Mycoplasma suis, UniProt C4RA40)
# T1 construct: gene ppa; tetramer (80 kDa) inferred from immunoblot of native cells only
# T1 sequence (C4RA40 1-164): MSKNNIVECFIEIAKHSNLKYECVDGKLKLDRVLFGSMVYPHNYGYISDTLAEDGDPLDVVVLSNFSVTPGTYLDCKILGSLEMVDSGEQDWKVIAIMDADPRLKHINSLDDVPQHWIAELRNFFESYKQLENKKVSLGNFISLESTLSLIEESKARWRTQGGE
# Assay: phosphate release, molybdate/ascorbic acid colorimetry (Saheki)
# Format: biochemical
# Settings: 50 mM MgCl2, pH 9.0, varied PPi (Figure 4E); standard assay: 5 mM Mg2+, 100 mM Tris pH 7.5, 1 mM PPi, 55 °C
structure (smiles),measurement,value
O=P(O)(O)OP(=O)(O)O [PPi],"phosphate release, molybdate/ascorbic acid colorimetry (Saheki)",Activity of M. suis rPPase using different PPi concentrations.

# — publication PMC2916918, “Inorganic pyrophosphatase in uncultivable hemotrophic mycoplasmas: identification and properties of the enzyme from Mycoplasma suis” (BMC Microbiology, 2010)
